# Measurements from the CombiSolv-Exp solvation set (Vermeire and Green 2021).
# Assay: solvent given as SMILES
smiles,measurement,setting,value
COc1ccccc1C(=O)O,"solvation free energy, 298 K",in C1CCOC1,-11.8 kcal/mol
same,"solvation free energy, 298 K",in C1COCCO1,-11.7 kcal/mol
same,"solvation free energy, 298 K",in CC(C)(C)O,-11 kcal/mol
same,"solvation free energy, 298 K",in CC(C)CCO,-10.8 kcal/mol
same,"solvation free energy, 298 K",in CC(C)CO,-10.9 kcal/mol
same,"solvation free energy, 298 K",in CC(C)O,-10.9 kcal/mol
same,"solvation free energy, 298 K",in CC(C)OCCO,-11.2 kcal/mol
same,"solvation free energy, 298 K",in CC(O)COC(C)(C)C,-11 kcal/mol
same,"solvation free energy, 298 K",in CCC(C)O,-11 kcal/mol
same,"solvation free energy, 298 K",in CCCC(C)O,-10.8 kcal/mol
same,"solvation free energy, 298 K",in CCCCCCCCCCO,-10.5 kcal/mol
same,"solvation free energy, 298 K",in CCCCCCCO,-10.8 kcal/mol
same,"solvation free energy, 298 K",in CCCCCCO,-10.8 kcal/mol
same,"solvation free energy, 298 K",in CCCCCO,-10.9 kcal/mol
same,"solvation free energy, 298 K",in CCCCCOC(C)=O,-10.6 kcal/mol
same,"solvation free energy, 298 K",in CCCCO,-11.1 kcal/mol
same,"solvation free energy, 298 K",in CCCCOC(C)=O,-10.8 kcal/mol
same,"solvation free energy, 298 K",in CCCCOCCO,-11.4 kcal/mol
same,"solvation free energy, 298 K",in CCCO,-11.2 kcal/mol
same,"solvation free energy, 298 K",in CCCOCCO,-11.3 kcal/mol
same,"solvation free energy, 298 K",in CCO,-11.5 kcal/mol
same,"solvation free energy, 298 K",in CCOC(C)=O,-11.2 kcal/mol
same,"solvation free energy, 298 K",in CCOCC,-10.5 kcal/mol
same,"solvation free energy, 298 K",in CCOCCO,-11.5 kcal/mol
same,"solvation free energy, 298 K",in CO,-11.8 kcal/mol
same,"solvation free energy, 298 K",in COC(C)=O,-11.3 kcal/mol
same,"solvation free energy, 298 K",in COC(C)CCO,-11.4 kcal/mol
CCN,"solvation free energy, 298 K",in CCCCCC,-2.29 kcal/mol
same,"solvation free energy, 298 K",in CCCCCCC,-2.09 kcal/mol
same,"solvation free energy, 298 K",in CCCCCCCC,-2.05 kcal/mol
same,"solvation free energy, 298 K",in CCCCCCCCCC,-1.93 kcal/mol
same,"solvation free energy, 298 K",in CCCCCCCCCCCCCCCC,-2.22 kcal/mol
same,"solvation free energy, 298 K",in O,-4.5 kcal/mol
CC(C)CO[N+](=O)[O-],"solvation free energy, 298 K",in O,-1.88 kcal/mol
COc1ccc(CCN)cc1,"solvation free energy, 298 K",in C=CCCCCCCC=C,-9.4 kcal/mol
same,"solvation free energy, 298 K",in O,-8.51 kcal/mol
CCCC(C)CO (stereo not drawn),"solvation free energy, 298 K",in CCCCCCCC,-4.89 kcal/mol
same,"solvation free energy, 298 K",in CCCCCCCCCC,-4.82 kcal/mol
CC(C)=CCCC(C)CCOC=O (stereo not drawn),"solvation free energy, 298 K",in O,-3.08 kcal/mol
CC(C)CCl,"solvation free energy, 298 K",in C1CCOC1,-4.39 kcal/mol
same,"solvation free energy, 298 K",in C1CCOCC1,-4.28 kcal/mol
same,"solvation free energy, 298 K",in C=CCCCCCCCCCCCCCC,-3.51 kcal/mol
same,"solvation free energy, 298 K",in CCCCCC,-3.87 kcal/mol
same,"solvation free energy, 298 K",in COC(C)(C)C,-4.13 kcal/mol
same,"solvation free energy, 298 K",in O,0.03 kcal/mol
CCC(=O)Nc1ccc(Cl)c(Cl)c1,"solvation free energy, 298 K",in O,-7.78 kcal/mol
CCCCCCCC(=O)OC,"solvation free energy, 298 K",in O,-2.04 kcal/mol
CCCCBr,"solvation free energy, 298 K",in C=CCCCCCCCCCCCCCC,-4.19 kcal/mol
same,"solvation free energy, 298 K",in CC(C)(C)O,-4.09 kcal/mol
same,"solvation free energy, 298 K",in CC(C)CO,-4.15 kcal/mol
same,"solvation free energy, 298 K",in CCC(C)O,-4.19 kcal/mol
same,"solvation free energy, 298 K",in CCCCCCCCCCO,-4.19 kcal/mol
same,"solvation free energy, 298 K",in CCCCCCCCO,-4.22 kcal/mol
same,"solvation free energy, 298 K",in CCO,-4.22 kcal/mol
same,"solvation free energy, 298 K",in ClC(Cl)(Cl)Cl,-4.75 kcal/mol
same,"solvation free energy, 298 K",in O,-0.34 kcal/mol
CN(C)C(=O)c1ccccc1,"solvation free energy, 298 K",in O,-9.29 kcal/mol
Brc1cc(Br)cc(Br)c1,"solvation free energy, 298 K",in CCCCCCCCC=CCCCCCCCC(=O)OCC(COC(=O)CCCCCCCC=CCCCCCCCC)OC(=O)CCCCCCCC=CCCCCCCCC,-8.73 kcal/mol
same,"solvation free energy, 298 K",in O,-1.91 kcal/mol
CCC1CO1 (stereo not drawn),"solvation free energy, 298 K",in CC(C)O,-3.72 kcal/mol
same,"solvation free energy, 298 K",in COC(=O)OC,-4.11 kcal/mol
same,"solvation free energy, 298 K",in COC(C)=O,-4.16 kcal/mol
same,"solvation free energy, 298 K",in ClC(Cl)Cl,-4.9 kcal/mol
same,"solvation free energy, 298 K",in O,-2.93 kcal/mol
CCS,"solvation free energy, 298 K",in CC(C)CC(C)(C)C,-3.13 kcal/mol
same,"solvation free energy, 298 K",in CO,-3 kcal/mol
same,"solvation free energy, 298 K",in O,-1.07 kcal/mol
same,"solvation free energy, 298 K",in OCCOCCOCCOCCO,-2.7 kcal/mol
CC(C)CCC(C)O (stereo not drawn),"solvation free energy, 298 K",in CCCCCCCC,-5.33 kcal/mol
same,"solvation free energy, 298 K",in CCCCCCCCCC,-5.22 kcal/mol
CCN(CC)CC,"solvation free energy, 298 K",in Brc1ccccc1,-4.47 kcal/mol
same,"solvation free energy, 298 K",in C1CCOC1,-4.59 kcal/mol
same,"solvation free energy, 298 K",in C1COCCO1,-4.06 kcal/mol
same,"solvation free energy, 298 K",in CC1COC(=O)O1,-2.89 kcal/mol
same,"solvation free energy, 298 K",in CC#N,-3.66 kcal/mol
same,"solvation free energy, 298 K",in CC(=O)c1ccccc1,-3.93 kcal/mol
same,"solvation free energy, 298 K",in CC(C)(C)O,-4.38 kcal/mol
same,"solvation free energy, 298 K",in CC(C)=O,-4.05 kcal/mol
same,"solvation free energy, 298 K",in CC(C)CCO,-4.88 kcal/mol
same,"solvation free energy, 298 K",in CC(C)O,-4.55 kcal/mol
same,"solvation free energy, 298 K",in CC(Cl)(Cl)Cl,-4.63 kcal/mol
same,"solvation free energy, 298 K",in CCC#N,-4.03 kcal/mol
same,"solvation free energy, 298 K",in CCC(C)=O,-4.16 kcal/mol
same,"solvation free energy, 298 K",in CCC(C)O,-4.82 kcal/mol
same,"solvation free energy, 298 K",in CCCCCC,-4.49 kcal/mol
same,"solvation free energy, 298 K",in CCCCCCC,-4.47 kcal/mol
same,"solvation free energy, 298 K",in CCCCCCCCCCCCCCCC,-3.99 kcal/mol
same,"solvation free energy, 298 K",in CCCCCO,-4.97 kcal/mol
same,"solvation free energy, 298 K",in CCCCCl,-4.57 kcal/mol
same,"solvation free energy, 298 K",in CCCCO,-4.85 kcal/mol
same,"solvation free energy, 298 K",in CCCO,-4.82 kcal/mol
same,"solvation free energy, 298 K",in CCO,-4.87 kcal/mol
same,"solvation free energy, 298 K",in CCOC(=O)c1ccccc1,-4.06 kcal/mol
same,"solvation free energy, 298 K",in CCOC(C)=O,-4.23 kcal/mol
same,"solvation free energy, 298 K",in CCOCC,-4.45 kcal/mol
same,"solvation free energy, 298 K",in CN(C)C=O,-3.57 kcal/mol
same,"solvation free energy, 298 K",in CO,-5.24 kcal/mol
same,"solvation free energy, 298 K",in Cc1ccc(C)cc1,-4.52 kcal/mol
same,"solvation free energy, 298 K",in Cc1ccccc1,-4.66 kcal/mol
same,"solvation free energy, 298 K",in ClC1CCCCC1,-4.29 kcal/mol
same,"solvation free energy, 298 K",in ClC(Cl)(Cl)Cl,-4.82 kcal/mol
same,"solvation free energy, 298 K",in ClC(Cl)C(Cl)Cl,-5.86 kcal/mol
same,"solvation free energy, 298 K",in ClC(Cl)Cl,-5.61 kcal/mol
same,"solvation free energy, 298 K",in ClCCCl,-4.38 kcal/mol
same,"solvation free energy, 298 K",in ClCCl,-4.98 kcal/mol
same,"solvation free energy, 298 K",in Clc1ccccc1,-4.56 kcal/mol
same,"solvation free energy, 298 K",in Ic1ccccc1,-4.33 kcal/mol
same,"solvation free energy, 298 K",in N#Cc1ccccc1,-4.05 kcal/mol
same,"solvation free energy, 298 K",in O,-3.22 kcal/mol
same,"solvation free energy, 298 K",in O=C1CCCCC1,-4.11 kcal/mol
same,"solvation free energy, 298 K",in c1ccccc1,-4.6 kcal/mol
COC(=O)c1ccc(I)cc1,"solvation free energy, 298 K",in CN(C)C=O,-10.7 kcal/mol
same,"solvation free energy, 298 K",in O,-5.09 kcal/mol
CCCCCCCCOC(=O)c1ccccc1C(=O)OCCCC,"solvation free energy, 298 K",in O,-6.83 kcal/mol
CCCCCC=CC=O,"solvation free energy, 298 K",in O,-3.43 kcal/mol
C=C1C=CC2(C(C)C)CC12 (stereo not drawn),"solvation free energy, 298 K",in O,-0.12 kcal/mol
CC(C)CCC(C)(C)C,"solvation free energy, 298 K",in O,2.94 kcal/mol
C=CC(C)=CCC=C(C)C,"solvation free energy, 298 K",in O,-0.5 kcal/mol
FC1(F)C(F)(F)C(F)(F)C1(F)F,"solvation free energy, 298 K",in O,3.43 kcal/mol
NC=O,"solvation free energy, 298 K",in CC(C)c1ccccc1,-4.1 kcal/mol
same,"solvation free energy, 298 K",in CCc1ccccc1,-4.58 kcal/mol
same,"solvation free energy, 298 K",in O,-10.2 kcal/mol
Cc1nc(NS(=O)(=O)c2ccc(N)cc2)oc1C,"solvation free energy, 298 K",in O,-17.7 kcal/mol
c1ccc(Cn2ccnc2)cc1,"solvation free energy, 298 K",in O,-7.63 kcal/mol
Nc1ccc(O)cc1,"solvation free energy, 298 K",in C1COCCO1,-12.3 kcal/mol
CN(C)CC=C(c1ccc(Br)cc1)c1cccnc1,"solvation free energy, 298 K",in O,-11.9 kcal/mol
CCCCCCCCCCCC,"solvation free energy, 298 K",in CCCCCC,-8.24 kcal/mol
same,"solvation free energy, 298 K",in CN(C)C=O,-6.15 kcal/mol
same,"solvation free energy, 298 K",in OCCOCCO,-4.02 kcal/mol
same,"solvation free energy, 298 K",in OCCOCCOCCO,-4.27 kcal/mol
same,"solvation free energy, 298 K",in OCCOCCOCCOCCO,-4.58 kcal/mol
CC1CCCC1,"solvation free energy, 298 K",in CC1CCS(=O)(=O)C1,-2.51 kcal/mol
same,"solvation free energy, 298 K",in CC#N,-2.8 kcal/mol
same,"solvation free energy, 298 K",in CCCCCCCCCC,-3.93 kcal/mol
same,"solvation free energy, 298 K",in CCCCCCCO,-3.51 kcal/mol
same,"solvation free energy, 298 K",in CCCCCO,-3.51 kcal/mol
same,"solvation free energy, 298 K",in CN1CCCC1=O,-2.99 kcal/mol
same,"solvation free energy, 298 K",in CN1CCCCC1=O,-3.16 kcal/mol
same,"solvation free energy, 298 K",in CN(C)C=O,-3 kcal/mol
same,"solvation free energy, 298 K",in CNC=O,-2.67 kcal/mol
same,"solvation free energy, 298 K",in COCCO,-2.99 kcal/mol
same,"solvation free energy, 298 K",in CS(C)=O,-2.47 kcal/mol
same,"solvation free energy, 298 K",in O,1.6 kcal/mol
same,"solvation free energy, 298 K",in O=CN1CCOCC1,-2.47 kcal/mol
same,"solvation free energy, 298 K",in OC1CCCCC1,-3.44 kcal/mol
same,"solvation free energy, 298 K",in OCCOCCO,-1.85 kcal/mol
same,"solvation free energy, 298 K",in OCCS,-2.33 kcal/mol
same,"solvation free energy, 298 K",in OCc1ccccc1,-3.01 kcal/mol
